We go through two compounds from patent US20160340732A1, “COMPOSITIONS AND METHODS FOR DIAGNOSING AND TREATING NUCLEOTIDE REPEAT DISORDERS” (University of Virginia Patent Foundation, priority 2015, published 2016).

One data set has as its system miR-762. The data set is described as follows: miR-762 levels in cells exposed to HDAC inhibitors. Format: cell-based. To be noted: mouse C2C12 cells, TSA 50 nM vs DMSO, 48 hours (FIG. 7). How it is done:
Epigenetic drugs increasing expression of miR-15 family members levels or miR762 are anticipated to have therapeutic potential. Importantly, these drugs are generally safe, and could influence NRDs even with small changes in miR levels. No regulators of miR-762 have been published, so whether candidate drugs might alter miR-762 levels in vitro were assessed. Cells were exposed to vehicle, trichostatin A (TSA, an HDAC inhibitor and antifungal agent), and valproate (an epilepsy drug, mood stabilizer, and weaker HDAC inhibitor). TSA increased miR-762 levels 65-fold (FIG. 7).

The next data set relates to NETO1 mRNA. As to the kind of experiment: NETO1 mRNA levels in astrocytes transfected with miR-762 mimic, inhibitor or scrambled miR. To be noted: non-diseased astrocytes transfected with 400 nM, vs scrambled miR (FIG. 15). Format: cell-based. An excerpt: De novo introduction of the expanded repeat into naïve wild-type cells to induce NETO1 expression will be evaluated. […] NETO1 is not a predicted target of miR-762 by traditional in silico analysis (which relies on 3′ UTR analysis). However, a (C4G2)3 site 149 base pairs upstream of the NETO1 5′ UTR was identified that appeared significant both for its perfect replication of the C9 antisense expansion and its predicted tight pairing to miR-762 (RegRNA database: http://regrna.mbc.nctu.edu.tw/html/prediction.html). miR binding and regulation of transcripts in the 5′ region is poorly understood, but is known to occur. miR-762 may be able to bind and downregulate NETO1 transcript levels. To assess this, non-diseased astrocytes were transfected with 400 nM miR-762 mimic, miR-762 inhibitor, or scrambled miR. […] If NETO1 regulation is involved in FTLD-MND glutamate excitotoxicity, then targeting miR-762 regulation of the transcript could represent a possible therapeutic angle.

With `CC(/C=C/C(=O)NO)=C\[C@@H](C)C(=O)c1ccc(N(C)C)cc1` [TSA, trichostatin A], the “increase of miR-762 levels” value with miR-762 was 65 fold.
Regarding “miR-762: miR-762 mimic transfected at 400 nM; miRNA sequence SEQ ID NO: 5 (Table 1) (CGAGCCGGGGCCGGGGUCGGGG; listed as RNA, chemistry not given here; listed as Homo sapiens)”, the “NETO1 mRNA level” value in the data set on NETO1 mRNA was “reproducible and significant downregulation”.
